Data: patent US12486280B2, “CDK inhibitors and uses thereof” (California Institute of Technology, priority 2018, dated 2025)
pIC50, pKi: −log10 of the molar value. ≈ marks a conversion by molar mass, not a printed value. Read-outs that look alike come from different tables or passages of the source.

What was measured:
[1] = target: CDK4 (Homo sapiens (Human), UniProt P11802); assay: Cdk4 and 6 Enzymatic Inhibition Assay (radiometric 33PanQinase, Ki determination); type: biochemical
Protocol: (§1) 10 distinct concentrations were prepared, with a dilution endpoint of 6×10^−9 M in 100% DMSO. 100% DMSO was used as a control. 10 μL from each of the serial dilutions were aliquoted into separate wells of a 96-well plate and 90 μL of water were added to each of those wells. The plate was shaken thoroughly, and 5 μL from each of the plate's wells were transferred into wells of the assay plate. The final volume of wells in the assay plate was 50 μL. A11 compounds were tested at 10 assay concentrations in the range from 2×10^−6 M to 6×10^−11 M. The final DMSO concentration in the wells of the assay plate was 1% in all cases.
(§2) A radiometric protein kinase assay (33PanQinase® Activity Assay) was used for measuring the kinase activity of six protein kinases. A11 kinase assays were performed in 96-well FlashPlates™ from PerkinElmer (Boston, MA, USA). The assay for all protein kinases contained 70 mM HEPES-NaOH pH 7.5, 3 mM MgCl2, 3 mM MnCl2, 3 μM Na-orthovanadate, 1.2 mM DTT, 50 μg/mL PEG20000, ATP [γ-33P]-ATP (approx. 9×1005 cpm per well), protein kinase and substrate. The reaction cocktails were incubated at 30° C. for 60 minutes. The reaction was stopped with 50 μL of 2% (v/v) H3PO4, and plates were aspirated and washed two times with 200 μL 0.9% (w/v) NaCl. Incorporation of ^33Pi was determined with a microplate scintillation counter (Microbeta, Wallac).

[2] = target: CDK6 (Homo sapiens (Human), UniProt Q00534); assay: as above; type: biochemical
Protocol: as §1, §2

[3] = tested on: drug-sensitive cell lines of Table 2 (EFM-19, MDA-MB-453, T-47D, ZR-75-1, NCI-H441, OVTOKO, NCI-H1838); assay: Cell Line Growth Retardation Assay, sensitive cohort; type: cell-based, human; settings: for pIC50: Homo sapiens, geometric mean over sensitive cohort, 6 days growth, read-out: AvgSensIC50; for Ther Window: average IC50 drug-resistant group divided by average IC50 drug-sensitive group
Protocol: (§3) Cells were seeded at densities of 1,000-5,000 cells per well in 48-well tissue culture plates. After a 24 hours rest period, cells were treated with compound at 10 μM, 2 μM, 0.4 μM, 0.08 μM, 0.016 μM, and 0.0032 μM. A group of cells were treated with the vehicle in which the compound was prepared and served as a control. The cells were grown in the presence of compounds for 6 days and were counted on day 0 and day 6. A11 cell counting was performed using a Synentec Cellavista plate imager. […] Growth inhibition was calculated as a ratio of cell population doublings in the presence of compound versus the absence of compound. […] IC50 values for each compound (see Table 3; reported in μM) were calculated by fitting curves to data points from each dose-response assay using the Proc NLIN function in SAS for Windows version 9.2 (SAS Institute, Inc.).
(§4) These sensitive and resistant cohorts were interrogated for response to each compound, and IC50s were calculated for each cell line using the same technique described above. Average IC50s for the sensitive and resistant cohorts were calculated as geometric means of the group. “Therapeutic Window” for each compound was calculated by dividing the average IC50 for the drug-resistant group by the average IC50 for the drug-sensitive group.

[4] = tested on: drug-resistant cell lines of Table 2 (NCI-H1437, OV207, HCC1806, NCI-H2172); assay: Cell Line Growth Retardation Assay, resistant cohort; type: cell-based, human; settings: Homo sapiens, […], geometric mean over resistant cohort; 6 days growth; read-out: AvgResIC50
Protocol: as §3, §4

[5] = target: hERG potassium channels (Homo sapiens (Human), UniProt Q12809); assay: hERG Inhibition Assay (QPatch automated patch clamp, CHO cells); settings: percent of control current
[6] = Caco-2 Assay (Papp A to B); settings: human, Caco-2, pH 7.4
[7] = tested on: CYP isozymes (IC50s averaged over the isozymes); assay: CYP Enzymatic Inhibition Assay in human liver microsomes
[8] = Measurement of Compound Metabolic Stability in hepatocytes
[9] = Compound Solubility Assay (kinetic solubility); type: physicochemical; settings: kinetic from dmso stock
Protocol: The relative kinetic solubility of each compound was determined at both low (1.2) and neutral (7.4) pH. Compounds were prepared at 10 mM stocks. […] Compounds were allowed to shake at room temperature for 24 hours in 50 mM phosphate buffer pH 7.4, or in SGF buffer pH 1.2 at 37° C. for 24 hours.

CDK6, sequence (Q00534 whole entry): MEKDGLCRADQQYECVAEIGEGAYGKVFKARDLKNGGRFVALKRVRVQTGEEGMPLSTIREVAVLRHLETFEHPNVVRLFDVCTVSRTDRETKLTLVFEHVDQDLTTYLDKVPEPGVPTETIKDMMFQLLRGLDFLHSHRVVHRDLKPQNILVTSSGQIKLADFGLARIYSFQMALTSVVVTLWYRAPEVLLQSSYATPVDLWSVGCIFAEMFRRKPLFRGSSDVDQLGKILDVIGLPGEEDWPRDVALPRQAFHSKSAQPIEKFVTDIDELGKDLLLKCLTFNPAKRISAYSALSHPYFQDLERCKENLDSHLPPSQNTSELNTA
CDK6, sequence (P24385 whole entry partner): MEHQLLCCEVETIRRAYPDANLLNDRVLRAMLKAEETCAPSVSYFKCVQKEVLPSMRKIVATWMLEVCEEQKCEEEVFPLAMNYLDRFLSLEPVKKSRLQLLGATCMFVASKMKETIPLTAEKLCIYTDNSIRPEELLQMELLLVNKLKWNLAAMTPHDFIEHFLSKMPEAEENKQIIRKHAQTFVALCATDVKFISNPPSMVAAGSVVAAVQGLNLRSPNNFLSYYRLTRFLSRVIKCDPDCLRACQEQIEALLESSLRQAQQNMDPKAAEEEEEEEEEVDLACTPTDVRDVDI
CDK4, sequence (P11802 whole entry): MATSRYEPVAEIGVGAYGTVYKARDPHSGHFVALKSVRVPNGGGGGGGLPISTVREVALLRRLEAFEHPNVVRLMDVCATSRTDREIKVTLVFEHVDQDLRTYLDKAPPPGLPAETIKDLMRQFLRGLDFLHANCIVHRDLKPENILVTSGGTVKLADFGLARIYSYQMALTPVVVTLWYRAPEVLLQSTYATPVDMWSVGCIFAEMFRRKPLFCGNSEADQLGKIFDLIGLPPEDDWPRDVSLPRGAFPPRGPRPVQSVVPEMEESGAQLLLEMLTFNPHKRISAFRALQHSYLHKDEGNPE
CDK4, sequence (P24385 whole entry partner): as the sequence (P24385 whole entry partner) above
hERG potassium channels, sequence (Q12809 whole entry): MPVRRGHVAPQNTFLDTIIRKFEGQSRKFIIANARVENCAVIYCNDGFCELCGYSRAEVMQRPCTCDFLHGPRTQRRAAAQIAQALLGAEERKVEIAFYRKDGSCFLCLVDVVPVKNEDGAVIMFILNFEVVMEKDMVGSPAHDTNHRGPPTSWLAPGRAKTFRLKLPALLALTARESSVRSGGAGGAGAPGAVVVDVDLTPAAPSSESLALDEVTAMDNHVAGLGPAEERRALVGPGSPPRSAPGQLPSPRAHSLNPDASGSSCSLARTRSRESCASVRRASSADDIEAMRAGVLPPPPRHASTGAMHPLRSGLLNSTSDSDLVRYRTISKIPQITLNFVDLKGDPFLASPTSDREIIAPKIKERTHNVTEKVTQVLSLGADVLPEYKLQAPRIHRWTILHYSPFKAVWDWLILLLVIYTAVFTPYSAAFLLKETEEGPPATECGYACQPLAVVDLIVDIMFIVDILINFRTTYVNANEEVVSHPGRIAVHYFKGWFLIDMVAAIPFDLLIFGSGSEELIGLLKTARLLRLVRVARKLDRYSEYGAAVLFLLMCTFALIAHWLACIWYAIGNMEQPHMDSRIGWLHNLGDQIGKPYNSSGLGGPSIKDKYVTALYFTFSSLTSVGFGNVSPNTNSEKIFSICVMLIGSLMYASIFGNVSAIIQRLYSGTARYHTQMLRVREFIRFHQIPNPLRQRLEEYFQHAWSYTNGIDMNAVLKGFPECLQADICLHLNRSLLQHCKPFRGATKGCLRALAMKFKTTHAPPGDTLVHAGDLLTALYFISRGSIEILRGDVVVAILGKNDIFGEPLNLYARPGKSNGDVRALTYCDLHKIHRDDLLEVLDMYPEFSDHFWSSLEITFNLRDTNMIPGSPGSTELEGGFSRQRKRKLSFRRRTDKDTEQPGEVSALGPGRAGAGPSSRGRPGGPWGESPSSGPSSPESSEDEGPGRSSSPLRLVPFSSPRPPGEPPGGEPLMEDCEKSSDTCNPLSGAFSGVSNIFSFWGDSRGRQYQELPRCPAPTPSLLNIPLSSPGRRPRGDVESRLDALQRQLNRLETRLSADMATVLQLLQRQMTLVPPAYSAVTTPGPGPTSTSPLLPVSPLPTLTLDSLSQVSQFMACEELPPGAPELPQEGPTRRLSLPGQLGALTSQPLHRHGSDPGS

Row | Compound | pKi [1] | pKi [2] | pIC50 [3] | pIC50 [4] | Papp A→B at 2 h, 2 μM [6] | IC50 at 10 min [7] | half-life at 1 μM [8] | solubility kinetic at 24 h ([9]; 50 mM phosphate buffer, pH 7.4, aqueous buffer, read-out: KS7) | solubility kinetic at 24 h ([9]; simulated gastric fluid, kinetic solubility, SGF buffer pH 1.2, 37° C., 24 hours, read-out: KS1) | Ther Window [3] | hERG [5]
1 | Cc1nc2c(F)cc(-c3nc(Nc4ccc(CN5CCO[C@](C)(CCN6CC(C)(O)C6)C5)cn4)ncc3F)cc2n1C(C)C [Compound A10, (R)-1-(2-(4-((6-((5-fluoro-4-(4-fluoro-1-isopropyl-2-methyl-1H-benzo[d]imidazol-6-yl)pyrimidin-2-yl)amino)pyridin-3-yl)methyl)-2-methylmorpholin-2-yl)ethyl)-3-methylazetidin-3-ol] | 9.02 | 8.26 | 7.15 | 6.01 | 0.01 ×10⁻⁶ cm/s | – | 1.11 h | – | – | 14.08 | –
2 | Cc1nc2c(F)cc(-c3nc(Nc4ccc(CN5CCO[C@](C)(CCN6CC[C@H](F)C6)C5)cn4)ncc3F)cc2n1C(C)C [Compound A14, 5-fluoro-4-(4-fluoro-1-isopropyl-2-methyl-1H-benzo[d]imidazol-6-yl)-N-(5-(((R)-2-(2-((S)-3-fluoropyrrolidin-1-yl)ethyl)-2-methylmorpholino)methyl)pyridin-2-yl)pyrimidin-2-amine] | 9.04 | 8.30 | 7.10 | 6.01 | 0.69 ×10⁻⁶ cm/s | 16900 nM | 0.178 h | – | – | 11.53 | 23.34%
3 | Cc1nc2c(F)cc(-c3nc(Nc4ccc(CN5CCO[C@](C)(CCN6CC[C@@H](F)C6)C5)cn4)ncc3F)cc2n1C(C)C [Compound A15, 5-fluoro-4-(4-fluoro-1-isopropyl-2-methyl-1H-benzo[d]imidazol-6-yl)-N-(5-(((R)-2-(2-((R)-3-fluoropyrrolidin-1-yl)ethyl)-2-methylmorpholino)methyl)pyridin-2-yl)pyrimidin-2-amine] | 9.11 | 8.39 | 7.10 | 6.23 | 0.8 ×10⁻⁶ cm/s | 17100 nM | 0.322 h | – | – | 7.07 | 17.46%
4 | Cc1nc2c(F)cc(-c3nc(Nc4ccc(CN5CCO[C@](C)(CCN6CCCC6)C5)cn4)ncc3F)cc2n1C(C)C [Compound A16, (R)-5-fluoro-4-(4-fluoro-1-isopropyl-2-methyl-1H-benzo[d]imidazol-6-yl)-N-(5-((2-methyl-2-(2-(pyrrolidin-1-yl)ethyl)morpholino)methyl)pyridin-2-yl)pyrimidin-2-amine] | 8.85 | 8.24 | 7.22 | 6.06 | 0.01 ×10⁻⁶ cm/s | 47900 nM | 3.61 h | – | – | 15.20 | 18.09%
5 | Cc1nc2c(F)cc(-c3nc(Nc4ccc(CN5CCO[C@](C)(CCN6CCC6)C5)cn4)ncc3F)cc2n1C(C)C [Compound A17, (R)—N-(5-((2-(2-(azetidin-1-yl)ethyl)-2-methylmorpholino)methyl)pyridin-2-yl)-5-fluoro-4-(4-fluoro-1-isopropyl-2-methyl-1H-benzo[d]imidazol-6-yl)pyrimidin-2-amine] | 8.99 | 8.28 | 7.30 | 6.07 | 0.02 ×10⁻⁶ cm/s | 51700 nM | 3.61 h | – | – | 15.41 | 20.47%
6 | Cc1nc2c(F)cc(-c3nc(Nc4ccc(CN5CCO[C@@]6(CCN(C)C6)C5)cn4)ncc3F)cc2n1C(C)C [Compound A39, (R)-5-fluoro-4-(4-fluoro-1-isopropyl-2-methyl-1H-benzo[d]imidazol-6-yl)-N-(5-((2-methyl-6-oxa-2,9-diazaspiro[4.5]decan-9-yl)methyl)pyridin-2-yl)pyrimidin-2-amine] | 8.74 | 8.18 | 6.52 | 6.01 | – | – | – | – | – | 3.25 | 14.81%
7 | CC(=O)c1c(C)c2cnc(Nc3ccc(N4CCNCC4)cn3)nc2n(C2CCCC2)c1=O [Palbociclib, reference compound] | – | – | – | – | 0.27 ×10⁻⁶ cm/s | 97700 nM | 0.915 h | 29.6 µM (≈ 13.2 µg/mL) | 196 µM (≈ 87.6 µg/mL) | 9.37 | –

The next lines start with results.

Row | pKi [1] | pKi [2] | pIC50 [3] | pIC50 [4] | Papp A→B at 2 h, 2 μM [6] | IC50 at 10 min [7] | half-life at 1 μM [8] | solubility kinetic at 24 h ([9]; 50 mM phosphate buffer, pH 7.4, aqueous buffer, read-out: KS7) | solubility kinetic at 24 h ([9]; simulated gastric fluid, kinetic solubility, SGF buffer pH 1.2, 37° C., 24 hours, read-out: KS1) | Compound | Ther Window [3] | hERG [5]
8 | 8.92 | 8.20 | 6.74 | 6.02 | – | – | – | – | – | CNCC[C@]1(C)CN(Cc2ccc(Nc3ncc(F)c(-c4cc(F)c5nc(C)n(C(C)C)c5c4)n3)nc2)CCO1 [Compound A5, (R)-5-fluoro-4-(4-fluoro-1-isopropyl-2-methyl-1H-benzo[d]imidazol-6-yl)-N-(5-((2-methyl-2-(2-(methylamino)ethyl)morpholino)methyl)pyridin-2-yl)pyrimidin-2-amine] | 5.33 | 14.76%
9 | 9.08 | 8.27 | 7.00 | 6.00 | 1.12 ×10⁻⁶ cm/s | 14600 nM | 0.237 h | – | – | Cc1nc2c(F)cc(-c3nc(Nc4ccc(CN5CCO[C@](C)(CCNCC(F)F)C5)cn4)ncc3F)cc2n1C(C)C [Compound A6, (R)—N-(5-((2-(2-((2,2-difluoroethyl)amino)ethyl)-2-methylmorpholino)methyl)pyridin-2-yl)-5-fluoro-4-(4-fluoro-1-isopropyl-2-methyl-1H-benzo[d]imidazol-6-yl)pyrimidin-2-amine] | 10.42 | 32.76%
10 | 9.00 | 8.37 | 6.80 | 6.04 | 0.04 ×10⁻⁶ cm/s | – | 1.24 h | – | – | Cc1nc2c(F)cc(-c3nc(Nc4ccc(CN5CCO[C@](C)(CCNC(C)(C)C)C5)cn4)ncc3F)cc2n1C(C)C [Compound A7, (R)—N-(5-((2-(2-(tert-butylamino)ethyl)-2-methylmorpholino)methyl)pyridin-2-yl)-5-fluoro-4-(4-fluoro-1-isopropyl-2-methyl-1H-benzo[d]imidazol-6-yl)pyrimidin-2-amine] | 5.75 | –
11 | 9.04 | 8.32 | 7.15 | 6.15 | 1.02 ×10⁻⁶ cm/s | 15200 nM | 0.148 h | – | – | Cc1nc2c(F)cc(-c3nc(Nc4ccc(CN5CCO[C@](C)(CCN6CC(F)C6)C5)cn4)ncc3F)cc2n1C(C)C [Compound A13] | 10.82 | 23.72%
12 | – | – | 6.82 | 6.00 | – | – | 1.61 h | – | – | Cc1nc2c(F)cc(-c3nc(Nc4ccc(CN5CCO[C@](C)(CCN)C5)cn4)ncc3F)cc2n1C(C)C [Compound A21, (R)—N-(5-((2-(2-aminoethyl)-2-methylmorpholino)methyl)pyridin-2-yl)-5-fluoro-4-(4-fluoro-1-isopropyl-2-methyl-1H-benzo[d]imidazol-6-yl)pyrimidin-2-amine] | 6.58 | –
